Consider 1 molecule from publication PMC9139979, “Features of ZED1227: The First-In-Class Tissue Transglutaminase Inhibitor Undergoing Clinical Evaluation for the Treatment of Celiac Disease” (Cells, 2022).

One data set addresses T1, hTG3 (Homo sapiens, UniProt Q08188).
T1 construct: purchased Zedira T013
T1 sequence (Q08188 2-467 limits assumed): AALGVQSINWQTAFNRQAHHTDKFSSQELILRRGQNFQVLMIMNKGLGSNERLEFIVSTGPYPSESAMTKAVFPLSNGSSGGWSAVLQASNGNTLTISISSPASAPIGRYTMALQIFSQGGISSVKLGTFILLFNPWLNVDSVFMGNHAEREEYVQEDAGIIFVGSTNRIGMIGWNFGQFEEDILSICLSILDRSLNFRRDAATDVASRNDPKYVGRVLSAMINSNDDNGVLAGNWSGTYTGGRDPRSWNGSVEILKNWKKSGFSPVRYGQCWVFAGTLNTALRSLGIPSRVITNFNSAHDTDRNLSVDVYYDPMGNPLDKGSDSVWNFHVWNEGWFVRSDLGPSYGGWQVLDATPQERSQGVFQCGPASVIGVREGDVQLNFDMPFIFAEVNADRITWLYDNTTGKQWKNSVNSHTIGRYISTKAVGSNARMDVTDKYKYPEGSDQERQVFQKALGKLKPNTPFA
T1 sequence (Q08188 468-693 partner limits assumed): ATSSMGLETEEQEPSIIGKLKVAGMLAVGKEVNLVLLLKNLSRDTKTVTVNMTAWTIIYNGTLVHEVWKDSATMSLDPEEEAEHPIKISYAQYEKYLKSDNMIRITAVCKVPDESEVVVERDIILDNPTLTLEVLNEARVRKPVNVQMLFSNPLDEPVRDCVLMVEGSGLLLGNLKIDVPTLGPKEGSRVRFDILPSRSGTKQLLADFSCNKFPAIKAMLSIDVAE
The data set can be described thus: Fluorescent transamidation assay (DCC-assay), hTG3. The data set is classed as biochemical.

Another data set addresses T2, hFXIII-A2 (Homo sapiens, UniProt P00488).
T2 construct: purchased Zedira T027
T2 sequence (P00488 39-732 limits assumed): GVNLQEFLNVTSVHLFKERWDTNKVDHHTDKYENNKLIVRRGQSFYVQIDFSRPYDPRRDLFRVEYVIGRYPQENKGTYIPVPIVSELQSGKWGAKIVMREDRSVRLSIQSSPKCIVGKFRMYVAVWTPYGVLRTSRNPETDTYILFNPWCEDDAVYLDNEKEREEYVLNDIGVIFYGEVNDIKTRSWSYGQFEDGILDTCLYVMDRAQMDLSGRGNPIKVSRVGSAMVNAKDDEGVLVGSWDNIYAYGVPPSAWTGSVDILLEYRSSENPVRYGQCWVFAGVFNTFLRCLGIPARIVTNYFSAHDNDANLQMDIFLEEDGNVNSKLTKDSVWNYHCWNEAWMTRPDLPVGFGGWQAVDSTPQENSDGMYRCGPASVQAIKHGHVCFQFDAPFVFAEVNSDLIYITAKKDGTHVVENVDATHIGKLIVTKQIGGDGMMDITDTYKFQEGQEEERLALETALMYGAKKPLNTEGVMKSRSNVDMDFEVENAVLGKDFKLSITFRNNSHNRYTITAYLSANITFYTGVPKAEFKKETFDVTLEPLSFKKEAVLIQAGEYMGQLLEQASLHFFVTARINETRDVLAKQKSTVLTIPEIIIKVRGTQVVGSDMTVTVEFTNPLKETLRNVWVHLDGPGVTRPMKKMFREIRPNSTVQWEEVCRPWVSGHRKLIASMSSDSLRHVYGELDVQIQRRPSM
Nature of the data set: Fluorescent transamidation assay (DCC-assay), hFXIII-A2. The data set is classed as biochemical.

The nature of data set [1]: logD by shake flask method (octanol/PBS pH 7.4). Type of data set: physicochemical. Here is the method: The logD value (distribution coefficient) of the compound was determined by means of the shake flask method, measuring the distribution of the solute in octanol and phosphate-buffered saline (PBS, pH 7.4). The concentration of ZED1227 in the immiscible solvents was determined by HPLC (vide supra). The stability in PBS (pH 7.4 or acidified to pH 5.0), in artificial gastric, and intestinal fluid was calculated as the percentage of residual parent compound after incubation for 24 h at 37 °C, using an initial concentration of 100 μM.

Each structure is given as a SMILES string. pIC50: −log10 of the molar value.

For orientation: pIC50 means the IC50 on a negative log10 scale, so that one unit is a factor of ten. The logD is lipophilicity at a set pH, counting ionised and neutral species.

`CCC(CC)CNC(=O)Cn1cccc(NC(=O)[C@H](CC/C=C/C(=O)OC)NC(=O)c2cncn2C)c1=O` [ZED1227, (S,E)-Methyl 7-(1-(2-(2-ethylbutylamino)-2-oxoethyl)-2-oxo-1,2-dihydropyridin-3-ylamino)-6-(1-methyl-1H-imidazole-5-carboxamido)-7-oxohept-2-enoate]: at hTG3 (ratio of app. IC50 values), the “Selectivity hTG3 versus hTG2” value was greater than 900 fold. Moreover, the negative logarithm of the IC50 (pIC50) on hTG3 (recombinant, activated hTG3a, transamidation assay, read-out: App. IC50 hTG3) is less than 4.30; at hFXIII-A2 (recombinant, thrombin activated, transamidation assay, read-out: App. IC50 hFXIII-A2), less than 4.30. Besides, on hFXIII-A2 (ratio of app. IC50 values), the “Selectivity hFXIII-A2 versus hTG2” value is greater than 900 fold. Also, the logD in data set [1] is 2.
